In patent US12187684B2, “Benzimidazole derivatives as modulators of retinoid-related orphan receptor gamma (RORγ) and pharmaceutical use thereof” (Jiangsu Hengrui Medicine Co., Ltd., priority 2018, dated 2025):

Target: T1, RORγ LBD-GST tagged (Homo sapiens, UniProt P51449)
T1 construct: RORγ LBD-GST tagged (Cat No. RORC-114H, Creative Biomart); purchased Creative Biomart RORC-114H
T1 sequence (P51449 269-508 limits assumed): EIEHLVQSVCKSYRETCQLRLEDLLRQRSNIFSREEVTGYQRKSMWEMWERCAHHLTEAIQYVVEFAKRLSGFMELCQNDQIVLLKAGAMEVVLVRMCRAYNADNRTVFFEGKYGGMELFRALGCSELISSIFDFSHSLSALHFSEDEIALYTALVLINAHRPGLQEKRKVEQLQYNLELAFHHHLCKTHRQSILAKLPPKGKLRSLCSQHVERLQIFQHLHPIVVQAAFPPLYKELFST
Test: LanthaScreen TR-FRET RORγ coactivator assay
Format: biochemical
Settings: Fluorescein-D22 coactivator peptide, 1 hour room temperature
From the text: LanthaScreen TR-FRET Retinoid-Related Orphan Receptor Gamma (RORγ) Coactivator Assay Materials and Reagents • 1. […] Fluorescein-D22 coactivator peptide (Cat No. PV4386, Invitrogen) • 3. LanthaScreen™ Tb anti-GST antibody (Cat No. PV3550, Invitrogen) • 4. TR-FRET coregulatory buffer D (Cat No, PV4420, Invitrogen) • 5. DTT (Cat No. P2325, Fisher) • 6. […] Tecan Infinite M1000 plate reader (Tecan) Experimental Procedure Prepare Complete TR-FRET Coregulator Buffer D by adding 1 M DTT to TR-FRET Coregulator Buffer D to the final concentration of 5 mM DTT. Make compound dilution in Complete TR-FRET Coregulator Buffer D. Highest dose is 3 μM, 7-folder dilution for total 7 doses. Add 10 μL to each well of a 384-well plate. For the negative and positive controls, add 10 μL of Complete TR-FRET Coregulator Buffer D. Prepare RORγ LBD using Complete TR-FRET Coregulator Buffer D. The final concentration of RORγ LBD is 25 ng/reaction. Add 5 μL RORγ LBD to all the wells of the 384-well assay plate except negative wells which adding 5 μL Complete TR-FRET Coregulator Buffer D. Prepare a solution containing 0.6 μM Fluorescein-D22 and 8 nM Tb anti-GST antibody using Complete TR-FRET Coregulator Buffer D. Add 5 μL to all wells of the 384-well assay plate. Briefly and gently mix the 384-well plate on a plate shaker and incubate at room temperature protected from light for 1 hour. The plate may be sealed with a cover to minimize evaporation. Read the plate at wavelengths of 520 nm and 495 nm on Tecan Infinite M1000. IC50 values were calculated using GraphPad Prism by plotting the logarithm of compounds concentration versus percent inhibition.

IC50 [µM] | SMILES
0.903 | CCS(=O)(=O)c1ccc(Cc2nc3c(Cl)c(-c4ccccc4OC(C)C)c(Cl)cc3[nH]2)cc1 [Example 8, 4,6-dichloro-2-(4-(ethylsulfonyl)benzyl)-5-(2-isopropoxyphenyl)-1H-benzo[d]imidazole]
0.626 | CCOc1ccccc1-c1c(Cl)cc2[nH]c(Cc3ccc(S(=O)(=O)CC)cc3)nc2c1Cl [Example 16, 4,6-dichloro-5-(2-ethoxyphenyl)-2-(4-(ethylsulfonyl)benzyl)-1H-benzo[d]imidazole]
0.097 | CCOc1ccccc1-c1c(Cl)cc2[nH]c(C(CO)c3ccc(S(=O)(=O)CC)cc3)nc2c1Cl (stereo not drawn) [Example 17, 2-(4,6-dichloro-5-(2-ethoxyphenyl)-1H-benzo[d]imidazol-2-yl)-2-(4-(ethylsulfonyl)phenyl)ethanol]
0.013 | CCOc1ccccc1-c1c(Cl)cc2[nH]c(C(O)c3ccc(S(=O)(=O)CC)cc3)nc2c1Cl (stereo not drawn) [Example 18, (4,6-dichloro-5-(2-ethoxyphenyl)-1H-benzo[d]imidazol-2-yl)(4-(ethylsulfonyl)phenyl)methanol]
0.489 | CCS(=O)(=O)c1ccc(Cc2nc3c(Cl)c(-c4ccccc4N(C)C)c(Cl)cc3[nH]2)cc1 [Example 27, 2-(4,6-dichloro-2-(4-(ethylsulfonyl)benzyl)-1H-benzo[d]imidazol-5-yl)-N,N-dimethylaniline]
0.045 | CCS(=O)(=O)c1ccc(Cc2nc3c(Cl)c(-c4ccccc4OC(F)F)c(Cl)cc3[nH]2)cc1 [Example 28, 4,6-dichloro-5-(2-(difluoromethoxy)phenyl)-2-(4-(ethylsulfonyl)benzyl)-1H-benzo[d]imidazole]
0.348 | CCS(=O)(=O)c1ccc(Cc2nc3c(Cl)c(-c4ccccc4C(C)C)c(Cl)cc3[nH]2)cc1 [Example 36, 4,6-dichloro-2-(4-(ethylsulfonyl)benzyl)-5-(2-isopropylphenyl)-1H-benzol[d]imidazole]

More lines, now with the values behind:

SMILES | IC50 [µM]
CCS(=O)(=O)c1ccc(C(CCO)c2nc3c(Cl)c(N4CCC(F)(F)CC4)c(Cl)cc3[nH]2)cc1 (single isomer, unassigned) [3-(4,6-dichloro-5-(4,4-difluoropiperidin-1-yl)-1H-benzo[d]imidazol-2-yl)-3-(4-(ethylsulfonyl)phenyl)propan-1-ol] | 0.093
CCS(=O)(=O)c1ccc(C(CC(N)=O)c2nc3c(Cl)c(N4CCC(F)(F)CC4)c(Cl)cc3[nH]2)cc1 (single isomer, unassigned) [3-(4,6-dichloro-5-(4,4-difluoropiperidin-1-yl)-1H-benzo[d]imidazol-2-yl)-3-(4-(ethylsulfonyl)phenyl)propanamide] | 0.057
NC(=O)CC(c1ccc(S(=O)(=O)CC2CC2)cc1)c1nc2cc(Cl)c(N3CCC(F)(F)CC3)c(Cl)c2[nH]1 (single isomer, unassigned) [3-(4-((cyclopropylmethyl)sulfonyl)phenyl)-3-(5,7-dichloro-6-(4,4-difluoropiperidin-1-yl)-1H-benzo[d]imidazol-2-yl)propanamide] | 0.014
O=S(=O)(CC1CC1)c1ccc(C(CCO)c2nc3cc(-c4ccccc4OC(F)F)c(Cl)cc3[nH]2)cc1 (single isomer, unassigned) [3-(6-chloro-5-(2-(difluoromethoxy)phenyl)-1H-benzo[d]imidazol-2-yl)-3-(4-((cyclopropylmethyl)sulfonyl)phenyl)propan-1-ol] | 0.081
NC(=O)CC(c1ccc(S(=O)(=O)CC2CC2)cc1)c1nc2cc(-c3ccccc3OC(F)F)c(Cl)cc2[nH]1 (single isomer, unassigned) [3-(6-chloro-5-(2-(difluoromethoxy)phenyl)-1H-benzo[d]imidazol-2-yl)-3-(4-((cyclopropylmethyl)sulfonyl)phenyl)propanamide] | 0.21
CC(C)Oc1ccccc1-c1cc2nc(C(CCO)c3ccc(S(=O)(=O)CC4CC4)cc3)[nH]c2cc1Cl (single isomer, unassigned) [3-(6-chloro-5-(2-isopropoxyphenyl)-1H-benzo[d]imidazol-2-yl)-3-(4-((cyclopropylmethyl)sulfonyl)phenyl)propan-1-ol] | 0.787
CC(C)Oc1ccccc1-c1cc2nc(C(CC(N)=O)c3ccc(S(=O)(=O)CC4CC4)cc3)[nH]c2cc1Cl (single isomer, unassigned) [3-(6-chloro-5-(2-isopropoxyphenyl)-1H-benzo[d]imidazol-2-yl)-3-(4-((cyclopropylmethyl)sulfonyl)phenyl)propanamide] | 1.41
CCS(=O)(=O)c1ccc(C(O)c2nc3c(Cl)c(-c4ccccc4)c(Cl)cc3[nH]2)cc1 (stereo not drawn) [Example 2, (4,6-dichloro-5-phenyl-1H-benzo[d]imidazol-2-yl)(4-(ethylsulfonyl)phenyl)methanol] | 0.467
CCS(=O)(=O)c1ccc(C(O)c2nc3c(Cl)c(-c4ccccc4OC(C)C)c(Cl)cc3[nH]2)cc1 (stereo not drawn) [Example 10, (4,6-dichloro-5-(2-isopropoxyphenyl)-1H-benzo[d]imidazol-2-yl)(4-(ethylsulfonyl)phenyl)methanol] | 0.056
CCS(=O)(=O)c1ccc(C(CO)c2nc3c(Cl)c(-c4ccccc4F)c(Cl)cc3[nH]2)cc1 (stereo not drawn) [Example 11, 2-(4,6-dichloro-5-(2-fluorophenyl)-1H-benzo[d]imidazol-2-yl)-2-(4-(ethylsulfonyl)phenyl)ethanol] | 0.242
CCS(=O)(=O)c1ccc(C(O)c2nc3c(Cl)c(-c4ccccc4F)c(Cl)cc3[nH]2)cc1 (stereo not drawn) [Example 12, (4,6-dichloro-5-(2-fluorophenyl)-1H-benzo[d]imidazol-2-yl)(4-(ethylsulfonyl)phenyl)methanol] | 0.106
CCS(=O)(=O)c1ccc(C(O)c2nc3c(Cl)c(-c4cc(Cl)ccc4Cl)c(Cl)cc3[nH]2)cc1 (stereo not drawn) [Example 15, (4,6-dichloro-5-(2,5-dichlorophenyl)-1H-benzo[d]imidazol-2-yl)(4-(ethylsulfonyl)phenyl)methanol] | 0.787
CCS(=O)(=O)c1ccc(C(CO)c2nc3c(Cl)c(-c4ccccc4C#N)c(Cl)cc3[nH]2)cc1 (stereo not drawn) [Example 22, 2-(4,6-dichloro-2-(1-(4-(ethylsulfonyl)phenyl)-2-hydroxyethyl)-1H-benzo[d]imidazol-5-yl)benzonitrile] | 0.219
CCS(=O)(=O)c1ccc(Cc2nc3c(Cl)c(-c4ccsc4)c(Cl)cc3[nH]2)cc1 [Example 24, 4,6-dichloro-2-(4-(ethylsulfonyl)benzyl)-5-(thiophen-3-yl)-1H-benzo[d]imidazole] | 0.701
CCS(=O)(=O)c1ccc(C(CO)c2nc3c(Cl)c(-c4ccsc4)c(Cl)cc3[nH]2)cc1 (stereo not drawn) [Example 25, 2-(4,6-dichloro-5-(thiophen-3-yl)-1H-benzo[d]imidazol-2-yl)-2-(4-(ethylsulfonyl)phenyl)ethanol] | 0.789
CCS(=O)(=O)c1ccc(C(O)c2nc3c(Cl)c(-c4ccsc4)c(Cl)cc3[nH]2)cc1 (stereo not drawn) [Example 26, (4,6-dichloro-5-(thiophen-3-yl)-1H-benzo[d]imidazol-2-yl)(4-(ethylsulfonyl)phenyl)methanol] | 0.465
CCS(=O)(=O)c1ccc(C(CO)c2nc3c(Cl)c(-c4ccccc4C(C)C)c(Cl)cc3[nH]2)cc1 (stereo not drawn) [Example 37, 2-(4,6-dichloro-5-(2-isopropylphenyl)-1H-benzo[d]imidazol-2-yl)-2-(4-(ethylsulfonyl)phenyl)ethanol] | 0.433
